According to paper PMC6941952, “A homogeneous bioluminescent immunoassay to probe cellular signaling pathway regulation” (Communications Biology, 2020):
Values joined by “and” are separate entries in the source; they are usually repeats but may differ in a detail not shown here. Equal values may be shown once.

Tested on: total NF-κB p65
Assay: NanoBiT cell-based immunoassay, total p65 in MCF-7 cells
Set-up: species or system human
Conditions: for level of p65: MCF-7 cells, TNFα 50 ng per ml 10 min, IKK16 10 µM 1 h; for Total p65, Average: background subtracted, average of replicates; for Total p65, Raw data / Total p65, Subtract reagent background: single replicates
Description: Prior to NanoBiT Cell-Based Immunoassay, 50,000 cells were seeded in 160 µl of complete growth media per well of a 96-well plate and incubated overnight. The cells were checked under microscope and it was determined that 50,000 cells per well in 96-well plate is under 90% confluency for all cells tested. If necessary, the cell culture media were replaced with serum-free media after the cells were stably adherent on the plate and incubated overnight. To treat cells with activators or inhibitors, medium was changed to 30 µl of medium containing inhibitors. If activation of a specific pathway is needed, the cells were stimulated with 10 µl of medium containing activators. To lyse the cells, 10 µl of lysis buffer containing 0.1% digitonin diluted in 1X immunoassay buffer with protease and phosphatase inhibitors was added and the plates were mixed vigorously for 20 min. Then, 50 µl of an antibody mix containing two primary antibodies against the target protein and NanoBiT detecting antibodies (0.3 µl each per well), diluted in 1X immunoassay buffer was added to the lysates. The plates were incubated at 23 °C for 90 min, followed by the addition of 25 µl of Nano-Glo® reagent consisting of Nano-Glo® Luciferase Assay Substrate mixed with 1X immunoassay buffer. Luminescence was measured using a plate-reading luminometer.
Single dose or dose response inhibitor treatments were performed prior to activation of the pathways as follows. For IκBα, the cells were treated in 30 µl medium with IKK16 or MG132 for 60 min before the addition of 10 µl of DMEM containing appropriate concentration of TNFα. To measure phosphorylation of AKT or STAT3, the corresponding NanoBiT immunoassays were developed with MCF-7 or A431 cells, respectively, according the same scheme used to develop the IκBα assay using the primary antibodies for AKT and STAT3 described in the reagents section. For the AKT assay, MCF-7 cells were incubated overnight in phenol-red free DMEM medium (Gibco #21063-029) without serum. Treatment with LY294002 was performed in 30 µl medium and cells were incubated for 60 min before the addition of 1 µM Insulin. To measure STAT3 phosphorylation, A431 cells were incubated overnight in DMEM medium without serum. […] After addition of the stimulators, the cells were incubated for additional times as follows. IκBα phosphorylation and degradation analyses required both time courses and single time points as described in figures. […] The NanoBiT immunoassay protocol was followed as described above.
All 96-well assay plates were read using a GloMax® 96 Microplate Luminometer from Promega. The instrument was set to 0.5 s integration time. In order to obtain net change of signal, the reagent background values (signal from the well containing all reagent except primary antibodies) were subtracted from the sample values. To plot and analyze the data, Microsoft Excel and GraphPad Prism® Software were used. IC50 values were determined by using a nonlinear regression fit to a sigmoidal dose response (variable slope).

Molecule	level of p65	Total p65, Average (TNF + Ikk16)	Total p65, Raw data (TNF + Ikk16)	Total p65, Subtract reagent background (TNF + Ikk16)	Total p65, Average (substance alone)	Total p65, Raw data (substance alone)	Total p65, Subtract reagent background (substance alone)	Total p65, Raw data (substance alone, listed as TNF)	Total p65, Subtract reagent background (substance alone, listed as TNF)
O=C(c1ccc(Nc2nccc(-c3cc4ccccc4s3)n2)cc1)N1CCC(N2CCCC2)CC1 [IKK16]	not affected	726760	756500 and 718200 and 763300	744060 and 737260 and 698960	788717	811900 and 763300 and 846900	828250 and 793250 and 744650	–	–
TNFα	not affected	–	–	–	887990	–	–	913100 and 869100 and 947500	925590 and 891190 and 847190
